Experimental data taken from the OligoGym collection.
Oligonucleotides are written 5' to 3', each unit as a sugar letter and its base; * is a phosphorothioate linkage, no mark a phosphodiester; rarer units and linkages stand in square brackets, end groups in braces. Plain capitals give the bases only. d = 2'-deoxy (DNA); r = 2'-OH (RNA)

Each substance was assayed against P2RX3 (assay: reporter assay of Huesken 2005). Conditions: siRNA.
Also: test concentration or dose not given here.

Substance | normalised inhibition (eCFP-eYFP dual reporter) [%]
sense rArUrCrGrGrGrArUrCrArUrCrArArCrCrGrArGdTdT / antisense rCrUrCrGrGrUrUrGrArUrGrArUrCrCrCrGrArUdGdG | 39.3
sense rArUrGrUrGrUrCrUrGrArUrUrArCrGrUrGrArCdTdT / antisense rGrUrCrArCrGrUrArArUrCrArGrArCrArCrArUdCdC | 33.9
sense rArUrUrGrUrUrArCrUrGrArArArArUrCrArGrAdTdT / antisense rUrCrUrGrArUrUrUrUrCrArGrUrArArCrArArUdCdA | 74.6
sense rCrArArGrGrArUrUrCrUrGrCrCrCrArGrArGrAdTdT / antisense rUrCrUrCrUrGrGrGrCrArGrArArUrCrCrUrUrGdCdA | 102
sense rCrArGrGrCrUrArCrArArCrUrUrCrArGrGrUrUdTdT / antisense rArArCrCrUrGrArArGrUrUrGrUrArGrCrCrUrGdGdG | 95.5
sense rCrArUrCrArArCrCrGrArGrUrArGrUrUrCrArGdTdT / antisense rCrUrGrArArCrUrArCrUrCrGrGrUrUrGrArUrGdAdT | 74.7
sense rCrArUrCrArUrCrCrCrCrArCrCrArUrCrArUrCdTdT / antisense rGrArUrGrArUrGrGrUrGrGrGrGrArUrGrArUrGdTdT | 38.5
sense rCrCrArArGrArUrGrArUrUrGrUrUrArCrUrGrAdTdT / antisense rUrCrArGrUrArArCrArArUrCrArUrCrUrUrGrGdTdG | 98.9
sense rCrCrArCrArGrCrGrGrArGrArArGrCrArGrUrCdTdT / antisense rGrArCrUrGrCrUrUrCrUrCrCrGrCrUrGrUrGrGdTdC | 62.7
sense rCrCrArCrCrUrCrArGrGrGrCrArCrCrUrCrGrGdTdT / antisense rCrCrGrArGrGrUrGrCrCrCrUrGrArGrGrUrGrGdCdG | 70.2
sense rCrCrGrGrCrUrCrGrArCrArGrCrGrUrUrUrCrUdTdT / antisense rArGrArArArCrGrCrUrGrUrCrGrArGrCrCrGrGdGdT | 98
sense rCrCrUrGrArCrArGrCrCrArGrGrGrArCrArUrGdTdT / antisense rCrArUrGrUrCrCrCrUrGrGrCrUrGrUrCrArGrGdTdT | 33.4
sense rCrGrCrArCrCrCrUrCrCrUrGrArArGrGrCrUrUdTdT / antisense rArArGrCrCrUrUrCrArGrGrArGrGrGrUrGrCrGdGdT | 67.9
sense rCrGrCrCrArCrCrUrCrArGrGrGrCrArCrCrUrCdTdT / antisense rGrArGrGrUrGrCrCrCrUrGrArGrGrUrGrGrCrGdTdC | 13
sense rCrGrCrGrGrCrUrUrUrGrArCrCrArArCrCrCrAdTdT / antisense rUrGrGrGrUrUrGrGrUrCrArArArGrCrCrGrCrGdAdT | 84.4
sense rCrGrGrCrUrCrGrArCrArGrCrGrUrUrUrCrUrGdTdT / antisense rCrArGrArArArCrGrCrUrGrUrCrGrArGrCrCrGdGdG | 86
sense rCrGrUrGrArArCrUrArCrArGrCrUrCrUrGrUrGdTdT / antisense rCrArCrArGrArGrCrUrGrUrArGrUrUrCrArCrGdCdA | 42
sense rCrUrArCrGrCrCrArArCrArGrArGrUrCrArUrGdTdT / antisense rCrArUrGrArCrUrCrUrGrUrUrGrGrCrGrUrArGdAdG | 53.4
sense rCrUrCrGrArCrArGrCrGrUrUrUrCrUrGrArGrAdTdT / antisense rUrCrUrCrArGrArArArCrGrCrUrGrUrCrGrArGdCdC | 64.2
sense rCrUrCrUrGrUrGrCrUrCrCrGrGrArCrCrUrGrUdTdT / antisense rArCrArGrGrUrCrCrGrGrArGrCrArCrArGrArGdCdT | 41.9
sense rCrUrGrArArArArUrCrArGrArUrGrCrArArGrGdTdT / antisense rCrCrUrUrGrCrArUrCrUrGrArUrUrUrUrCrArGdTdA | 85.5
sense rCrUrGrArUrUrArCrGrUrGrArCrGrCrCrArCrCdTdT / antisense rGrGrUrGrGrCrGrUrCrArCrGrUrArArUrCrArGdAdC | 50
sense rCrUrGrGrArCrCrArUrCrGrGrGrArUrCrArUrCdTdT / antisense rGrArUrGrArUrCrCrCrGrArUrGrGrUrCrCrArGdCdT | 60.7
sense rCrUrUrCrCrCrArArCrCrUrGrArCrArGrCrCrAdTdT / antisense rUrGrGrCrUrGrUrCrArGrGrUrUrGrGrGrArArGdGdA | 66.3
sense rCrUrUrUrArCrUrUrCrUrGrUrGrGrGrArGrUrGdTdT / antisense rCrArCrUrCrCrCrArCrArGrArArGrUrArArArGdGdC | 67.7
sense rGrArArArCrGrCrCrCrArUrCrArUrGrArUrGrGdTdT / antisense rCrCrArUrCrArUrGrArUrGrGrGrCrGrUrUrUrCdCdA | 48.7

Substance | normalised inhibition (eCFP-eYFP dual reporter) [%]
sense rGrArArGrCrUrGrArGrArArCrUrUrCrArCrUrAdTdT / antisense rUrArGrUrGrArArGrUrUrCrUrCrArGrCrUrUrCdCdA | 88.8
sense rGrArCrCrCrUrUrUrCrUrGrCrCrCrCrArUrCrUdTdT / antisense rArGrArUrGrGrGrGrCrArGrArArArGrGrGrUrCdCdT | 65.8
sense rGrArCrUrUrGrGrArCrArArGrGrCrCrUrGrGrGdTdT / antisense rCrCrCrArGrGrCrCrUrUrGrUrCrCrArArGrUrCdGdC | 93
sense rGrArGrArArArArGrCrArGrCrGrUrGrUrCrCrCdTdT / antisense rGrGrGrArCrArCrGrCrUrGrCrUrUrUrUrCrUrCdAdG | 68.3
sense rGrArGrGrArGrArArArUrArCrCrGrCrUrGrUrGdTdT / antisense rCrArCrArGrCrGrGrUrArUrUrUrCrUrCrCrUrCdAdC | 67.4
sense rGrArGrUrArGrUrUrCrArGrCrUrUrCrUrGrArUdTdT / antisense rArUrCrArGrArArGrCrUrGrArArCrUrArCrUrCdGdG | 91.8
sense rGrArUrUrCrUrGrCrCrCrArGrArGrArGrUrGrAdTdT / antisense rUrCrArCrUrCrUrCrUrGrGrGrCrArGrArArUrCdCdT | 96.9
sense rGrCrArCrCrUrCrGrGrUrCrUrUrUrGrUrCrArUdTdT / antisense rArUrGrArCrArArArGrArCrCrGrArGrGrUrGrCdCdC | 85.9
sense rGrCrGrGrArGrArArGrCrArGrUrCrCrArCrCrGdTdT / antisense rCrGrGrUrGrGrArCrUrGrCrUrUrCrUrCrCrGrCdTdG | 81.8
sense rGrCrGrGrCrCrUrUrUrArCrUrUrCrUrGrUrGrGdTdT / antisense rCrCrArCrArGrArArGrUrArArArGrGrCrCrGrCdCdA | 61.4
sense rGrCrGrGrGrGrCrArGrGrArUrUrUrUrGrCrCrAdTdT / antisense rUrGrGrCrArArArArUrCrCrUrGrCrCrCrCrGrCdAdA | 67.8
sense rGrCrGrGrGrUrArGrGrGrGrArCrGrUrGrGrUrCdTdT / antisense rGrArCrCrArCrGrUrCrCrCrCrUrArCrCrCrGrCdAdA | 37.2
sense rGrCrUrCrCrGrGrArCrUrCrUrArCrGrCrCrArAdTdT / antisense rUrUrGrGrCrGrUrArGrArGrUrCrCrGrGrArGrCdCdC | 87.3
sense rGrGrArArArCrGrCrCrCrArUrCrArUrGrArUrGdTdT / antisense rCrArUrCrArUrGrArUrGrGrGrCrGrUrUrUrCrCdAdC | 74.8
sense rGrGrCrCrGrArCrCrArGrUrArCrArArArGrCrCdTdT / antisense rGrGrCrUrUrUrGrUrArCrUrGrGrUrCrGrGrCrCdCdC | 68
sense rGrGrCrCrGrCrUrGrCrGrUrGrArArCrUrArCrAdTdT / antisense rUrGrUrArGrUrUrCrArCrGrCrArGrCrGrGrCrCdAdG | 72.3
sense rGrGrCrCrUrUrUrArCrUrUrCrUrGrUrGrGrGrAdTdT / antisense rUrCrCrCrArCrArGrArArGrUrArArArGrGrCrCdGdC | 80.2
sense rGrGrGrCrArUrUrArArGrArUrCrGrGrCrUrGrGdTdT / antisense rCrCrArGrCrCrGrArUrCrUrUrArArUrGrCrCrCdAdG | 59.7
sense rGrGrGrUrArGrGrGrGrArCrGrUrGrGrUrCrArAdTdT / antisense rUrUrGrArCrCrArCrGrUrCrCrCrCrUrArCrCrCdGdC | 94.9
sense rGrGrUrArCrGrGrGrArCrArCrArGrCrCrArUrUdTdT / antisense rArArUrGrGrCrUrGrUrGrUrCrCrCrGrUrArCrCdTdG | 61.2
sense rGrGrUrGrArArUrGrArGrArCrUrArCrGrCrUrGdTdT / antisense rCrArGrCrGrUrArGrUrCrUrCrArUrUrCrArCrCdTdC | 87.3
sense rGrUrArCrCrGrCrArCrCrCrUrCrCrUrGrArArGdTdT / antisense rCrUrUrCrArGrGrArGrGrGrUrGrCrGrGrUrArCdTdC | 37.1
sense rUrArArCrCrArArGrGrUrGrArArGrGrGrCrUrCdTdT / antisense rGrArGrCrCrCrUrUrCrArCrCrUrUrGrGrUrUrAdCdC | 16.2
sense rUrArGrGrGrUrGrGrGrUrUrUrUrCrUrUrGrCrAdTdT / antisense rUrGrCrArArGrArArArArCrCrCrArCrCrCrUrAdCdA | 82.2
sense rUrCrArCrUrArUrUrUrUrCrArUrCrArArGrArAdTdT / antisense rUrUrCrUrUrGrArUrGrArArArArUrArGrUrGrAdAdG | 79.6
sense rUrCrArGrArCrArGrCrCrArGrUrGrCrGrGrGrCdTdT / antisense rGrCrCrCrGrCrArCrUrGrGrCrUrGrUrCrUrGrAdTdA | 23.8
